Earlier results as cited in patent US11878910B2, “Ph-based structural change of water soluble carbon nanoparticles for encapsulation and release of therapeutic agents in biological systems” (SINON THERAPEUTICS INC., priority 2015, dated 2024).

## C1=Cc2nc1c(-c1ccccc1)c1nc(c(-c3ccccc3)c3ccc([nH]3)c(-c3ccccc3)c3ccc([nH]3)c2-c2ccccc2)C=C1 [TPP, tetraphenylporphyrin]
  solubility in water: insoluble
